Measurements reported in patent publication US9629828B2, “Methods of treating traveler's diarrhea and hepatic encephalopathy” (priority 2008, dated 2017).
“And” between values parts separate entries of the source, which are not always exact repeats. Equal values may be shown once. Marks after values point to notes of the source that are not given here.

Experiments:
[1] = tested on: subjects in remission from hepatic encephalopathy (HE); test: First study: HE-related, HE-caused and all-cause hospitalization; format: in vivo, human; settings: for Probability of no HE-related hospitalization: Kaplan-Meier; for Probability of no HE-related hospitalization / Cumulative number of events (HE-related hospitalization) / Event probability (HE-related hospitalization during the treatment interval) / Number of events (HE-related hospitalization): ITT, N = 140
Source text: The analysis of time to first HE-related hospitalization was based on the comparison of time to hospitalization between rifaximin and placebo.
FIG. 9 illustrates time to first HE-related hospitalization (e.g., hospitalization directly resulting from HE or hospitalization caused by HE) by treatment group in the ITT population in the first study. Table 19 presents estimates of the proportions of subjects who had their first HE-related hospitalization over the course of the Treatment Period and results of statistical analyses. Subjects who discontinued prior to hospitalization due to HE and prior to completion of the 6-month treatment period were censored at the time of discontinuation. […] This hazard ratio represents a 50% reduction, when compared with placebo, in the risk of hospitalization due to HE during the 6-month treatment period.
FIG. 5 illustrates time to first HE-caused hospitalizations by treatment group in the first study.

[2] = tested on: adult subjects with travelers' diarrhea; test: Travelers' diarrhea Study 1: clinical response (TLUS, clinical cure); format: in vivo, human
Protocol: (§1) One study was conducted at clinical sites in Mexico, Guatemala, and Kenya (Study 1). The other study was conducted in Mexico, Guatemala, Peru, and India (Study 2). Stool specimens were collected before treatment and 1 to 3 days following the end of treatment to identify enteric pathogens. The predominant pathogen in both studies was Escherichia coli.
The clinical efficacy of rifaximin was assessed by the time to return to normal, formed stools and resolution of symptoms. The primary efficacy endpoint was time to last unformed stool (TLUS) which was defined as the time to the last unformed stool passed, after which clinical cure was declared. […] More patients treated with rifaximin were classified as clinical cures than were those in the placebo group.

[3] = tested on: Campylobacter jejuni; test: Travelers' diarrhea Study 2: fever/blood in stool, Campylobacter jejuni; parameters: species or system human; settings: in vivo
Protocol: as §1
The results of Study 2 supported the results presented for Study 1. […] These subjects had lower clinical cure rates than those without fever or blood in the stool at baseline. Many of the patients with fever and/or blood in the stool (dysentery-like diarrheal syndromes) had invasive pathogens, primarily Campylobacter jejuni, isolated in the baseline stool.
In addition to not being different from placebo, the microbiologic eradication rates for subjects with Campylobacter jejuni isolated at baseline were much lower than the eradication rates seen for Escherichia coli.

[4] = clinical; settings: human, in vivo
Source text: Results from the current study were compared with historical data from subjects with normal hepatic function.

[5] = treatment interval 0 to <28 days
[6] = treatment interval 28 to <56 days
[7] = treatment interval 56 to <84 days
[8] = treatment interval 84 to <140 days
[9] = treatment interval 140 to <168 days

For `CO[C@H]1/C=C/O[C@@]2(C)Oc3c(C)c(O)c4c(O)c(c5c(nc6cc(C)ccn65)c4c3C2=O)NC(=O)/C(C)=C\C=C\[C@H](C)[C@H](O)[C@@H](C)[C@@H](O)[C@@H](C)[C@H](OC(C)=O)[C@@H]1C` [rifaximin, (2S,16Z,18E,20S,21S,22R,23R,24R,25 S,26S,27S,28E)-5,6,21,23,25-pentahydroxy-27-methoxy-2,4,11,16,20,22,24,26-octamethyl-2,7-(epoxypentadeca-[1,11,13]trienimino)benzofuro[4,5-e]pyrido[1,2-á]-benzimidazole-1,15(2H)-dione,25-acetate], the “reduction in risk of HE-caused hospitalization vs placebo” value ([1]; 6-month treatment) was 56%, the “reduction in risk of HE-related hospitalization vs placebo” value ([1]; 6-month treatment) was 50% and the “Probability of no HE-related hospitalization” value [1, 5] was 1.0000. For the same compound, the “Probability of no HE-related hospitalization” value [1, 6] was 0.9711, the “Probability of no HE-related hospitalization” value [1, 7] was 0.9411 and the “Probability of no HE-related hospitalization” value [1, 8] was 0.0904. For the same compound, the “Probability of no HE-related hospitalization” value [1, 9] was 0.8665, the “Probability of no HE-related hospitalization” value ([1]; treatment interval ≧168 days) was 0.8475 and the Survival ([1]; Table 4, N = 140, days r11-r21 as E901) was 1.0000 and 0.9564 and 0.9258 and 0.8848 and 0.8403 and 0.8108. For the same compound, the Survival ([1]; Table 17, days r10-r15 as E2201) was 1.0000 and 0.9711 and 0.9411 and 0.9094 and 0.8665 and 0.8475, the HE-caused hospitalization rate ([1]; first study) was 0.30 events/PEY and the “HE-related hospitalization rate lower than placebo” value ([1]; in vivo) was 51%. The “reduction in risk of all-cause hospitalization vs placebo” value ([1]; in vivo) was 30%, the “subjects with HE-caused hospitalizations” value ([1]; in vivo) was 15 of 140 and the “subjects with all-cause hospitalization” value ([1]; in vivo) was 46 of 140. The “time to first HE related hospitalization vs placebo (FIG. 3)” value ([1]; in vivo) was “increased time to hospitalization”, the HE-related hospitalization rate ([1]; normalized to exposure) was 0.38 event/PEY and the “Cumulative number of events (HE-related hospitalization)” value (“Cumulative number of events” for short) [1, 5] was 4. For the same compound, the “Event probability (HE-related hospitalization during the treatment interval)” value [1, 5] was 0.03, the “Number of events (HE-related hospitalization)” value [1, 5] was 4 and the “Cumulative number of events” value [1, 6] was 8. For the same compound, the “Event probability (HE-related hospitalization during the treatment interval)” value [1, 6] was 0.03, the “Number of events (HE-related hospitalization)” value [1, 6] was 4 and the “Cumulative number of events” value [1, 7] was 12. The “Event probability (HE-related hospitalization during the treatment interval)” value [1, 7] was 0.03, the “Number of events (HE-related hospitalization)” value [1, 7] was 4 and the “Cumulative number of events” value [1, 8] was 17. For the same compound, the “Event probability (HE-related hospitalization during the treatment interval)” value [1, 8] was 0.05, the “Number of events (HE-related hospitalization)” value [1, 8] was 5 and the “Cumulative number of events” value [1, 9] was 19. The “Event probability (HE-related hospitalization during the treatment interval)” value [1, 9] was 0.02, the “Number of events (HE-related hospitalization)” value [1, 9] was 2 and the “Cumulative number of events” value ([1]; treatment interval ≧168 days) was 19. For the same compound, the “Event probability (HE-related hospitalization during the treatment interval)” value ([1]; treatment interval ≧168 days) was 0, the “Number of events (HE-related hospitalization)” value ([1]; treatment interval ≧168 days) was 0 and the “Median TLUS” value ([2]; 200 mg TID 3 days, ITT n = 125) was 32.5 h. The “Difference in rates of clinical cure vs placebo” value ([2]; ITT) was 18.7^b, the Clinical cure ([2]; ITT n = 125) was 99 (79.2) n (%) and the “clinical cure rate, Campylobacter jejuni as sole pathogen at baseline” value [3] was 23.5%. The “effectiveness in travelers' diarrhea due to Campylobacter jejuni” value [3] was “not effective”, the Cmax [4] was under 4 ng/mL and the AUC ([4]; 550 mg) was 12.3 ng·h/mL.
